Three molecules from patent US11708367B2, “Compounds for the treatment of kinase-dependent disorders” (Exelixis, Inc., priority 2018, dated 2023) can be followed below.

One assay addresses KDR (Homo sapiens (Human), UniProt P35968). Kind of assay: KDR autophosphorylation ELISA in HUVEC cells. It is filed as cell-based. Conditions: cellular, VEGF165-stimulated, phospho-KDR ELISA. An outline of the steps: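 Serum-starved (24 h) HUVECs were pre-treated with compound (8-point dose curve, 0.3% DMSO final) for 1 h, then stimulated with 100 ng/mL human VEGF165 for 5 min. Lysate phospho-KDR was quantified by ELISA against a phospho-KDR standard. IC50 came from a 4-parameter logistic fit, normalized to stimulated-DMSO (100%) and unstimulated (0%) controls.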

For another assay, the target named is Met (Homo sapiens (Human), UniProt P08581). Put plainly: Human Met kinase assay (33P radiometric, KinaseProfiler). It is filed as biochemical. Conditions: 10 μM ATP, read-out: c-Met IC50.
Another assay concerns the target Human Axl (Homo sapiens (Human), UniProt P30530, Q764R). Kind of assay: Human AXL kinase assay (33P radiometric, KinaseProfiler). It is filed as biochemical. The following applies: 10 μM ATP.
Another assay addresses AXL (Homo sapiens (Human), UniProt P30530). Put plainly: AXL autophosphorylation ELISA in A-172 cells. It is filed as cell-based. The following applies: cellular, Gas6-stimulated, phospho-AXL ELISA. A digest of the protocol: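 A-172 glioblastoma cells, serum-starved 24 h, got 8-point compound dilutions (0.3% DMSO) for 1 h, then 1 μg/mL human Gas6 for 15 min. Phospho-AXL in lysates was quantified by ELISA against a standard, normalized between DMSO and reference-inhibitor controls; IC50 by 4-parameter logistic fit.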

Chain of AXL (P30530 26-894): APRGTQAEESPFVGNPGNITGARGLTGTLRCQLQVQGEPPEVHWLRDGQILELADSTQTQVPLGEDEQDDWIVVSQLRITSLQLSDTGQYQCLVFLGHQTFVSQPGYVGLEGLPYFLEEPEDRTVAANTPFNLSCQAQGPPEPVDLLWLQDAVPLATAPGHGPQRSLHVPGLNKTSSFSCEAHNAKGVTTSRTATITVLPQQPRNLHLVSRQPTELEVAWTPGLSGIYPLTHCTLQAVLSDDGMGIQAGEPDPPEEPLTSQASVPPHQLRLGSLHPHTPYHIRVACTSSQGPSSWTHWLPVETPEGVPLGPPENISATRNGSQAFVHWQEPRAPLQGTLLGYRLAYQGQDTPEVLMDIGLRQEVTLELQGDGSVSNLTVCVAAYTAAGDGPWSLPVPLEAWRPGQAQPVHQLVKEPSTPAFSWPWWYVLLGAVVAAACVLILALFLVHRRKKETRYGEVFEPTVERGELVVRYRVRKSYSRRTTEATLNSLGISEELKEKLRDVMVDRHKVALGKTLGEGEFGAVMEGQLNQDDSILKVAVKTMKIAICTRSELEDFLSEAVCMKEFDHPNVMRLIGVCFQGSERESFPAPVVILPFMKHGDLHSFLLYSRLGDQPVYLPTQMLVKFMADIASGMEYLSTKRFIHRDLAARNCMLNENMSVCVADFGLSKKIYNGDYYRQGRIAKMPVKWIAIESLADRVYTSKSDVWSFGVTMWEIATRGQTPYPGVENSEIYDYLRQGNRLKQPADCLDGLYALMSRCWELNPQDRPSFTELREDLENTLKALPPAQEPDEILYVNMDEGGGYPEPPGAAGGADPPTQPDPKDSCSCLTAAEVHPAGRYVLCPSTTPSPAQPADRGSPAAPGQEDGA
Chain of Human Axl (P30530 473-894 Q764R): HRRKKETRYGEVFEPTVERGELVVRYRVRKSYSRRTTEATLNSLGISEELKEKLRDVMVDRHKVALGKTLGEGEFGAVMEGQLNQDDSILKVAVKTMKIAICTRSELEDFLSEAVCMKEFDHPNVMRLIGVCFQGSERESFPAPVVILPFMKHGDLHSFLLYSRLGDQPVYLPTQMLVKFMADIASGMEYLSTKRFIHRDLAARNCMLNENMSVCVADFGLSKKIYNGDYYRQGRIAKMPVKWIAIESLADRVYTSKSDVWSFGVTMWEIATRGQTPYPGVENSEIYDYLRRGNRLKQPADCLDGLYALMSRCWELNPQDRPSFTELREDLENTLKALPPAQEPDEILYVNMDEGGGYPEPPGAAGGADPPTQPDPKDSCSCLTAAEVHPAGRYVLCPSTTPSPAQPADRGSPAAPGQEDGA
Chain of KDR (P35968 20-1356): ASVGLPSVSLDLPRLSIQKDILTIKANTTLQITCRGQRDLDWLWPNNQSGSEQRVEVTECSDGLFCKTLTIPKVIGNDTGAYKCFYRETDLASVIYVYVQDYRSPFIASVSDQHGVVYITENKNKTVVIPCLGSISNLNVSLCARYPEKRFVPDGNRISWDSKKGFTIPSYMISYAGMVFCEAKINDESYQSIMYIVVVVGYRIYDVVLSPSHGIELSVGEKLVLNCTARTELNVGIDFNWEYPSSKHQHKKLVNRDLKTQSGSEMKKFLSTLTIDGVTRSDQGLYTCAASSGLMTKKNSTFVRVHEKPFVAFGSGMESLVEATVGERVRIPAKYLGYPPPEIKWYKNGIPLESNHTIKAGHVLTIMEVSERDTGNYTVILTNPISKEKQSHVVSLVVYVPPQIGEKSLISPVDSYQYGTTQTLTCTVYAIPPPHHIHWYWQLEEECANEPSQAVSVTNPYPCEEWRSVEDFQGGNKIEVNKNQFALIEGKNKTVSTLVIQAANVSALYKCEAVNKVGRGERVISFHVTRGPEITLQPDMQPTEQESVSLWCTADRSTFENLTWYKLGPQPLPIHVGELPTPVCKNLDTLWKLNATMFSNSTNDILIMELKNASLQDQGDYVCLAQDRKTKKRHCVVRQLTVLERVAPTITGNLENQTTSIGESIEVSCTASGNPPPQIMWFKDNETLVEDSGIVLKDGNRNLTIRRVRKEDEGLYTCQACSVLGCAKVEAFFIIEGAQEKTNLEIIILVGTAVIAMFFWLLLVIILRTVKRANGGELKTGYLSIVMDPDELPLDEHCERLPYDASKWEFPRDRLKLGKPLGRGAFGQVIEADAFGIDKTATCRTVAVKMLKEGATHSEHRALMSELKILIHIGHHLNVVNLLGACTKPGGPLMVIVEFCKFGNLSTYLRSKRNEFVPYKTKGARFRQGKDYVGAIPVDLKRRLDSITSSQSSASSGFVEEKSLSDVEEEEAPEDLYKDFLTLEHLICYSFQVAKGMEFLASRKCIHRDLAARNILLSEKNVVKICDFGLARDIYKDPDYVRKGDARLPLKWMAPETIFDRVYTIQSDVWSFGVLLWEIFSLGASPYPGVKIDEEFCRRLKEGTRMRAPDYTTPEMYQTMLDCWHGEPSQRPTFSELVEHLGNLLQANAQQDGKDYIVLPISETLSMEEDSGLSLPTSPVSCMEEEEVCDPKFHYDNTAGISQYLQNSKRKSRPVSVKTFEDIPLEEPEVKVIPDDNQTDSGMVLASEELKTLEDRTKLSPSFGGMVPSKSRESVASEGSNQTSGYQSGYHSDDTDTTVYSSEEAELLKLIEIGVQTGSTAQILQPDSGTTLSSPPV

Take `COc1cc2nccc(Oc3ccc(NC(=O)C4(C(=O)Nc5ccc(F)cc5)CC4)cc3)c2nc1OC` [Compound 139, 1-N-[4-[(6,7-dimethoxy-1,5-naphthyridin-4-yl)oxy]phenyl]-1-N′-(4-fluorophenyl)cyclo-propane-1,1-dicarboxamide]: the IC50 at KDR, on Met, against Human Axl and on AXL was no more than 10 nM each time.
`COc1cc2nccc(Oc3ccc(NC(=O)C4(C(=O)Nc5ccc(F)cc5)CC4)cc3F)c2nc1OC` [Compound 140, 1-N′-[4-[(6,7-dimethoxy-1,5-naphthyridin-4-yl)oxy]-3-fluorophenyl]-1-N-(4-fluorophenyl)cyclopropane-1,1-dicarboxamide]: the IC50 at KDR, on Met, at Human Axl and on AXL was no more than 10 nM in each case.
For `COc1cc2nccc(Oc3ccc(NC(=O)C4(C(=O)Nc5ccc(F)cc5)CC4)cc3Cl)c2nc1OC` [Compound 141, 1-N′-[3-chloro-4-[(6,7-dimethoxy-1,5-naphthyridin-4-yl)oxy]phenyl]-1-N-(4-fluorophenyl)cyclo-propane-1,1-dicarboxamide], the IC50 was no more than 10 nM at KDR, no more than 10 nM on Met, 10 to 100 nM on Human Axl and 10 to 100 nM against AXL.
